Literature values, collected in US6764693B1, “Free radical quenching composition and a method to increase intracellular and/or extracellular antioxidants” (Amaox, Ltd., priority 1992, dated 2004).

Legend:
[1] = oxidants from activated leukocytes
[2] = antioxidant placed in liposomes
[3] = separate experimental protocols
T lymphocytes = conditions: activated leukocytes combined with T lymphocytes
[4] = tested on: HIV in U1 cell line (promonocytes); conditions: increasing thiol concentration in culture medium of U1 cells
[5] = pH of 1.0
[6] = free GSH, intravenous

Compound	effect on lipid peroxidation of liposomes [1]	mortality [3] [%]	effect on HIV [4]	also measured
Cc1c(C)c2c(c(C)c1O)CCC(C)(CCCC(C)CCCC(C)CCCC(C)C)O2 (stereo not drawn) [vitamin E, alpha-tocopherol]	conferred protection against lipid peroxidation	46		effect on lipid peroxidation in liposomes exposed to uv [2]: inhibited
catalase	inhibited peroxidation			suppression of lymphocytic function (T lymphocytes): no suppression of lymphocytic function
glutathione ester [GSE]			suppression of viral assembly, HIV reverse transcriptase production and viral replication	
CC(C)(C)/[N+]([O-])=C/c1ccccc1 [PBN, phenyltertylnitrone]		42		
N[C@@H](CCC(=O)N[C@@H](CS)C(=O)NCC(=O)O)C(=O)O [glutathione]		100	suppression of viral assembly, HIV reverse transcriptase production and viral replication	rate constant K2 against the hydroxyl radical [5]: 8.8×10^9; t½ [6]: approximately 1.6 minutes
beta carotene [beta-carotene]	conferred protection against lipid peroxidation			effect on lipid peroxidation in liposomes exposed to uv [2]: inhibited
CC(=O)N[C@@H](CS)C(=O)O [NAC, N-acetyl-cysteine]			suppression of viral assembly, HIV reverse transcriptase production and viral replication	rate constant K2 against the hydroxyl radical [5]: 1.36×10^10
